Reference: patent publication US20240122865A1, “Methods of Protecting RNA” (Pfizer Inc., priority 2021, published 2024)

Assays:
Type in all cases: biochemical, Trichoderma atroviride
[1] = system: FgenL model RNA; assay: TapeStation Assay, FgenL model RNA; design: Conc. FgenL#1 / Conc. FgenL#2: unit not given here; conditions: for % Control N = 1 / % Control N = 2 / % Control Average: FgenL RNA, 20 mM amino acids, 50 mM CAPS pH 11, 50° C. 15 min; for % Control N = 1 / % Control N = 2: vs Time 0; for % Control Average: vs Time 0, Avg N=2; for Conc. FgenL#1 / Conc. FgenL#2: intact FgenL RNA after 15 min at 50° C.; for Conc. FgenL#1: 20 mM amino acids in 50 mM CAPS pH 11, run #1; for Conc. FgenL#2: 20 mM amino acids in 50 mM CAPS pH 11, run #2
Summary of the method: (§1)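 Chi18 or FgenL model RNA at 50 ng/μL in 50 mM CAPS pH 11 was mixed with amino acids (stocks in CAPS, readjusted to >pH 11) and heated at 50° C for 0 or 15 minutes; time-0 samples stayed on ice. Intact RNA was measured by capillary electrophoresis with optical detection and compared with a no-degradation baseline.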

[2] = system: Chi18 model RNA; assay: TapeStation Assay, Chi18 model RNA; design: Conc. chi18#1 / Conc. chi18#2: unit not given here; conditions: for % Control N = 1 / % Control N = 2 / % Control Avg.: Chi18 RNA, 20 mM amino acids, 50 mM CAPS pH 11, 50° C. 15 min; for % Control N = 1 / % Control N = 2: vs Time 0; for % Control Avg.: vs Time 0, Avg N=2; for Conc. chi18#1 / Conc. chi18#2: intact Chi18 RNA after 15 min at 50° C.; for Conc. chi18#1: 20 mM amino acids in 50 mM CAPS pH 11, run #1; for Conc. chi18#2: 20 mM amino acids in 50 mM CAPS pH 11, run #2
Summary of the method: as §1

[3] = system: FgenL mRNA construct; assay: Size Exclusion Base Hydrolysis Degradation Assay, FgenL; conditions: 25 mM amino acid; for T0 R1 peak area at 250 nm: FgenL 0.1 mg/mL, 50 mM CAPS, T=0, replicate 1; for T2 Avg, peak area as percentage of T=0 / T2 R1 peak area at 250 nm / T10 Avg, peak area as percentage of T=0 / T10 R1 peak area at 250 nm / T24 Avg, peak area as percentage of T=0 / T24 R1 peak area at 250 nm / T0 Avg, peak area as percentage of T=0: FgenL; for T2 Avg, peak area as percentage of T=0 / T2 R1 peak area at 250 nm / T10 Avg, peak area as percentage of T=0 / T10 R1 peak area at 250 nm / T24 Avg, peak area as percentage of T=0 / T24 R1 peak area at 250 nm: 50 mM CAPS pH 11, room temperature; for T2 Avg, peak area as percentage of T=0 / T2 R1 peak area at 250 nm: 2 hrs; for T2 R1 peak area at 250 nm / T10 R1 peak area at 250 nm / T24 R1 peak area at 250 nm: replicate 1; for T10 Avg, peak area as percentage of T=0 / T10 R1 peak area at 250 nm: 10 hrs; for T24 Avg, peak area as percentage of T=0 / T24 R1 peak area at 250 nm: 24 hrs; for T0 Avg, peak area as percentage of T=0: T=0 (reference)
Summary of the method: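 mRNA (diluted to 1.0 mg/mL) preincubated 1 h with amino acid, then brought to pH 11 with CAPS and NaOH at room temperature. Intact mRNA quantified by size-exclusion UPLC, peak area at 250 nm in the T=0 elution window, expressed as percentage of T=0 at 2, 10 and 24 hrs.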

[4] = molecular target: Chi18 model RNA; assay: Droplet Digital Polymerase Chain Reaction (ddPCR) Assay, Chi18; conditions: percent protection, pH 11.0, 30° C., 16 hours, n = 2
Summary of the method: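 Chi18 (25 fg/μL) or FgenL (10 fg/μL) RNA at pH 11.0 incubated 16 h with amino acids (10-point half-log series, ~300 mM top stock in CAPS), at 30° C or 44° C respectively. Intact RNA reverse-transcribed, ddPCR 5′-positive droplet fraction taken as protection; EC50 from four-parameter logistic fit.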

[5] = system: FgenL model RNA; conditions: percent protection, pH 11.0, 44° C., 16 hours, n = 2

| Compound | % Control N = 1 [1] | % Control N = 2 [1] | % Control Average [1] | Conc. FgenL#1 [1] | Conc. FgenL#2 [1] | % Control N = 1 [2] | % Control N = 2 [2] | % Control Avg. [2] | Conc. chi18#1 [2] | Conc. chi18#2 [2] | T0 R1 peak area at 250 nm [3] | T2 Avg, peak area as percentage of T=0 [3] | T2 R1 peak area at 250 nm [3] | T10 Avg, peak area as percentage of T=0 [3] | T10 R1 peak area at 250 nm [3] | T24 Avg, peak area as percentage of T=0 [3] | T24 R1 peak area at 250 nm [3] | T0 Avg, peak area as percentage of T=0 [3] | EC50 [4] | EC50 [5] |
| --- | --- | --- | --- | --- | --- | --- | --- | --- | --- | --- | --- | --- | --- | --- | --- | --- | --- | --- | --- | --- |
| N[C@@H](CCC(=O)N[C@@H](CS)C(=O)NCC(=O)O)C(=O)O [Glutathione] | 42.9% | 35.7% | 39.3% | 14.8 | 12.4 | 29.3% | 26.7% | 28.0% | 15.6 | 14.1 | 16850 | 37.7% | 4627 | 2.3% | 0 | 0.0% | 0 | 100.0% | > 30 mM | > 30 mM |
| O=C(O)[C@@H]1C[C@@H](O)CN1 [Hydroxyproline] | 14.8% | 10.7% | 12.8% | 5.12 | 3.73 | 17.3% | 17.3% | 17.3% | 9.2 | – | 16626 | 22.4% | 5048 | 0.0% | 0 | 0.0% | 0 | 100.0% | > 30 mM | > 30 mM |
| NCCCC[C@H](N)C(=O)O [Lysine] | 19.9% | 17.6% | 18.7% | 6.85 | 6.12 | 22.0% | 15.5% | 18.7% | 11.7 | 8.18 | 17400 | 0.0% | 0 | 0.0% | 0 | 0.0% | 0 | 100.0% | > 30 mM | > 30 mM |
| N[C@@H](CO)C(=O)O [Serine] | 37.7% | 31.4% | 34.5% | 13 | 10.9 | 42.2% | 42.2% | 42.2% | 22.5 | – | 17044 | 46.6% | 7928 | 11.3% | 0 | 0.0% | 0 | 100.0% | > 30 mM | > 30 mM |
| NCC(=O)O [Glycine] | 39.4% | 37.2% | 38.3% | 13.6 | 12.9 | 42.0% | 51.4% | 46.7% | 22.4 | 27.2 | 18897 | 29.3% | 3657 | 0.0% | 0 | 0.0% | 0 | 100.0% | 15 mM | > 30 mM |
| C[C@H](N)C(=O)O [Alanine] | 28.8% | 23.2% | – | 9.93 | 8.05 | 35.3% | 51.4% | 43.3% | 18.8 | 27.2 | 17478 | 44.3% | 7051 | 0.0% | 0 | 0.0% | 0 | 100.0% | > 30 mM | > 30 mM |
